From US20170305922A1, “CARM1 INHIBITORS AND USES THEREOF” (Epizyme, Inc., priority 2014, published 2017)

Assays:
Human CARM1 (PRMT4) = molecular target: T1, Human CARM1 (PRMT4) (Homo sapiens, UniProt Q86X55); assay: CARM1 enzyme assay on peptide substrates (3H-SAM Flashplate); conditions: Biochemical assay; CARM1 0.25 nM, 3H-SAM 30 nM, peptide 250 nM; read-out: Biochem IC50
T1 construct: Flag-CARM1-His was eluted with 200 ug/ml FLAG peptide in buffer A; made in house; host or cells: HEK 293F cells infected with recombinant baculovirus (pFastBacMam)
T1 sequence (Q86X55 1-585 isoform Q86X55-1): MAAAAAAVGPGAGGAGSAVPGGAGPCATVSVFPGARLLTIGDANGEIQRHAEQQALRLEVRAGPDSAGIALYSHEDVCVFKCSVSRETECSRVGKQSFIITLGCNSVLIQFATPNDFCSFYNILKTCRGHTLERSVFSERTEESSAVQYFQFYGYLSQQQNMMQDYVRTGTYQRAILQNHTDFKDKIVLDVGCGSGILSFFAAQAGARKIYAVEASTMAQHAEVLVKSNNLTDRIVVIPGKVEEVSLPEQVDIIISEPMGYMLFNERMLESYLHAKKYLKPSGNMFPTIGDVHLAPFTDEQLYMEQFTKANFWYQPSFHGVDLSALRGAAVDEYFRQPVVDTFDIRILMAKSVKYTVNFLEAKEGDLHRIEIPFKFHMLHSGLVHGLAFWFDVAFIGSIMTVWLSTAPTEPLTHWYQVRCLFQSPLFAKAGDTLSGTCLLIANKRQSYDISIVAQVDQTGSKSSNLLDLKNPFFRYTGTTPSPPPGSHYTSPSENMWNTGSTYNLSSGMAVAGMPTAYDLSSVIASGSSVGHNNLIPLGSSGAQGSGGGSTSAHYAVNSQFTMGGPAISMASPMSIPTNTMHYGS

[1] = test system: asymmetric di-methyl PABP1 in RKO cells; assay: RKO methylation assay: In Cell Western (ICW) for asymmetric di-methyl PABP1 (PABP1me2a); conditions: Homo sapiens, RKO, 48 h, Cellular-based (PABP1me2a) ICW (In Cell Western) assay
How it was run: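 In-cell western on compound-exposed RKO cells (48 hours): asymmetric di-methyl PABP1 detected by antibody at 800 nm, DNA content by DRAQ5 at 700 nm. Percent inhibition from signal ratios against DMSO (minimum) and 20 μM reference compound (maximum) wells; IC50 curves fitted from triplicates.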

SMILES: CCc1onc(C)c1-c1nc(-c2cc(OC[C@H](O)CNC)ccc2Cl)nc(N2Cc3cccnc3C2)c1C [Example 207]
- IC50 (Human CARM1 (PRMT4)): 1.5 nM
- IC50 [1]: 74 nM

SMILES: CNC[C@@H](O)COc1ccc(Cl)c(-c2nc(-c3c(C)noc3C)c(C)c(N3CC4(CCN(CC(F)(F)F)C(=O)O4)C3)n2)c1 [Example 116]
- IC50 (Human CARM1 (PRMT4)): 13.8 nM
- IC50 [1]: 339 nM

SMILES: CNC[C@@H](O)COc1ccc(Cl)c(-c2nc(-c3c(C)noc3C)c(C)c(N3Cc4cn(CC(=O)N(C)C)nc4C3)n2)c1 [Example 113]
- IC50 (Human CARM1 (PRMT4)): 8.8 nM
- IC50 [1]: 1150 nM

SMILES: CNC[C@@H](O)COc1ccc(Cl)c(-c2nc(-c3c(Cl)cnn3C)c(C)c(N3Cc4cnc(OC)nc4C3)n2)c1 [Example 339]
- IC50 (Human CARM1 (PRMT4)): 2.54 nM
- IC50 [1]: 65.4 nM

SMILES: CC[C@@H]1CN(c2nc(-c3cc(OC[C@H](O)CNC)ccc3Cl)nc(-c3c(C)noc3C)c2C)CCN1CC(F)F [Example 203]
- IC50 (Human CARM1 (PRMT4)): 4.6 nM
- IC50 [1]: 200 nM

SMILES: CNC[C@@H](O)COc1ccc(Cl)c(-c2nc(-c3c(C)noc3C)c(C)c(N3CC4(CC(F)C4)C3)n2)c1 [Example 140]
- IC50 (Human CARM1 (PRMT4)): 4.2 nM
- IC50 [1]: 241 nM

SMILES: CNC[C@@H](O)COc1ccc(Cl)c(-c2nc(-c3c(C)noc3C)c(C)c(N3Cc4ccc(C)nc4C3)n2)c1 [Example 69]
- IC50 (Human CARM1 (PRMT4)): 1.2 nM
- IC50 [1]: 22 nM

SMILES: CNC[C@@H](O)COc1ccc(Cl)c(-c2nc(-c3c(C)noc3C)c(C)c(N3CC(C#N)(COC)C3)n2)c1 [Example 286]
- IC50 (Human CARM1 (PRMT4)): 4.17 nM
- IC50 [1]: 282 nM

SMILES: CNC[C@@H](O)COc1ccc(Cl)c(-c2nc(-c3c(C)noc3C)c(C)c(N3CC4(C3)CN(C(C)C(F)(F)F)C4)n2)c1 (stereo partly shown) [Example 283]
- IC50 (Human CARM1 (PRMT4)): 5.67 nM
- IC50 [1]: 48.4 nM

SMILES: CCc1cc2c(cn1)CN(c1nc(-c3cc(OC[C@H](O)CNC)ccc3Cl)nc(-c3c(C)noc3C)c1C)C2 [Example 37]
- IC50 (Human CARM1 (PRMT4)): 2.6 nM
- IC50 [1]: 37 nM

SMILES: CNC[C@@H](O)COc1ccc(Cl)c(-c2nc(-c3c(C)noc3C)c(C)c(N3CC4(CN(C(=O)OCC(F)(F)F)C4)C3)n2)c1 [Example 219]
- IC50 (Human CARM1 (PRMT4)): 5.5 nM
- IC50 [1]: 129 nM

SMILES: CCn1ncc(C)c1-c1nc(-c2cc(OC[C@H](O)CNC)ccc2Cl)nc(N2Cc3cccnc3C2)c1C [Example 89]
- IC50 (Human CARM1 (PRMT4)): 3.7 nM
- IC50 [1]: 165 nM

SMILES: CNC[C@@H](O)COc1ccc(Cl)c(-c2nc(-c3c(C)c(Cl)nn3C)c(C)c(N3CC4(CN(CC(F)(F)F)C4)C3)n2)c1 [Example 233]
- IC50 (Human CARM1 (PRMT4)): 4.3 nM
- IC50 [1]: 29 nM

SMILES: CNC[C@@H](O)COc1ccc(Cl)c(-c2nc(-c3c(C)noc3C)c(C)c(N3Cc4ncnc(OCCOC)c4C3)n2)c1 [Example 94]
- IC50 (Human CARM1 (PRMT4)): 2.3 nM
- IC50 [1]: 44 nM

SMILES: CCOC1CC2(C1)CN(c1nc(-c3cc(OC[C@H](O)CNC)ccc3Cl)nc(-c3c(C)noc3C)c1C)C2 [Example 231]
- IC50 (Human CARM1 (PRMT4)): 4.6 nM
- IC50 [1]: 41 nM

SMILES: CNC[C@@H](O)COc1ccc(F)c(-c2nc(-c3c(C)noc3C)c(C)c(N3Cc4cnn(C5CC5)c4C3)n2)c1 [Example 16]
- IC50 (Human CARM1 (PRMT4)): 2.1 nM
- IC50 [1]: 56 nM

SMILES: CNC[C@@H](O)COc1ccc(Cl)c(-c2nc(-c3c(C)noc3C)c(C)c(N3CC4(CCC(C(=O)N5CC(OC)C5)CC4)C3)n2)c1 [Example 173]
- IC50 (Human CARM1 (PRMT4)): 5 nM
- IC50 [1]: 408 nM

SMILES: CNC[C@@H](O)COc1ccc(Cl)c(-c2nc(-c3c(C)noc3C)c(C)c(N3CC4(CC(OC(C)C)C4)C3)n2)c1 [Example 133]
- IC50 (Human CARM1 (PRMT4)): 9.9 nM
- IC50 [1]: 42 nM

SMILES: CNC[C@@H](O)COc1ccc(Cl)c(-c2nc(-c3c(C)noc3C)c(C)c(N3Cc4ccc(N5CCC5)nc4C3)n2)c1 [Example 221]
- IC50 (Human CARM1 (PRMT4)): 1.5 nM
- IC50 [1]: 17 nM

SMILES: CNC[C@@H](O)COc1ccc(Cl)c(-c2nc(-c3c(Br)cnn3C)c(C)c(N3CC4=C(CN(C(=O)OC)C4)C3)n2)c1 [Example 336]
- IC50 (Human CARM1 (PRMT4)): 3.03 nM
- IC50 [1]: 32.1 nM

SMILES: CCOc1ncc2c(n1)CN(c1nc(-c3cc(OC[C@H](O)CNC)ccc3Cl)nc(-c3c(C)c(Cl)nn3C)c1C)C2 [Example 155]
- IC50 (Human CARM1 (PRMT4)): 2.4 nM
- IC50 [1]: 18 nM

SMILES: CNC[C@@H](O)COc1ccc(Cl)c(-c2nc(-c3c(C)noc3C)c(C)c(N3CC4(CN(C(=O)N(C)C)C4)C3)n2)c1 [Example 41]
- IC50 (Human CARM1 (PRMT4)): 8.7 nM
- IC50 [1]: 546 nM

SMILES: CNC[C@@H](O)COc1cccc(-c2nc(-c3c(C#N)cnn3C)c(C)c(N3Cc4cccnc4C3)n2)c1 [Example 347]
- IC50 (Human CARM1 (PRMT4)): 28.2 nM
- IC50 [1]: > 2000 nM
